According to patent publication EP1948196B1, “USE OF TETRAORGANOSILICON COMPOUNDS” (Salama, Zoser B., priority 2005, dated 2007):

What was measured:
Lymphome = assay: Effect on lymphomas
HIV-Vren = assay: Antiviral effect; conditions: in particular as vesicles holding antisense constructs
Krebszellen = assay: Effect of sugar silanes on cancer cells; format: cell-based
Osteosarkomen = assay: Antimetastatic effect in rats; format: in vivo; conditions: in Ratten
Basalzellkarzinome = assay: Effect on basal cell carcinomas
Entero-Viren = assay: Antiviral effect; conditions: in particular as vesicles holding antisense constructs
Medulloblastome = assay: Effect on medulloblastomas

CCCCC/C=C\C/C=C\CCCCCCCC(=O)O[Si](OC(=O)CCCCCCC/C=C\C/C=C\CCCCC)(C(C)C)C(C)C [Di(linoylooxy)diisopropylsilan]
Wirkung auf Lymphome (Lymphome): zeigen eine Wirkung | Wirkung gegen HIV-Vren (HIV-Vren): zeigen eine Wirkung

CC/C=C\C/C=C\C/C=C\CCCCCCCC(=O)O[Si](OC(=O)CCCCCCC/C=C\C/C=C\C/C=C\CC)(C(C)C)C(C)C [Di(linolenoylooxy) diisopropylsilan]
Wirkung auf Lymphome (Lymphome): zeigen eine Wirkung | Wirkung gegen HIV-Vren (HIV-Vren): zeigen eine Wirkung

CCCCCCCCCCCC[Si](C)(C)O[C@@H]1O[C@H](COC(C)=O)[C@@H](OC(C)=O)[C@H](OC(C)=O)[C@H]1OC(C)=O [Silan 12, 1-O-Dimethyl(dodecyl)silyl-2,3,4,6-tetra-0-acetyl-ß-D-glucopyrasonid]
Wirkung auf Krebszellen (Krebszellen): zeigen ebenfalls eine Wirkung

CCCCCCCCCC(=O)O[Si](OC(=O)CCCCCCCCC)(C(C)C)C(C)C [Di(decanoyloxy)diisopropylsilan]
antimetastasierende Wirkung bei Osteosarkomen (Osteosarkomen): zeigen eine antimetastasierende Wirkung

C[Si](C)(OC(=O)[C@H](Cc1ccccc1)NC(=O)[C@H](Cc1ccccc1)NC(=O)[C@@H](N)Cc1ccccc1)OC(=O)[C@H](Cc1ccccc1)NC(=O)[C@H](Cc1ccccc1)NC(=O)[C@@H](N)Cc1ccccc1 [Dimethyl bis(triphenylalanyl)silylester]
Wirkung auf Basalzellkarzinome (Basalzellkarzinome): zeigen eine Wirkung

CCCCCCCCCCCCCCCCCC[Si](C)(C)O[C@@H]1O[C@H](COC(C)=O)[C@@H](OC(C)=O)[C@H](OC(C)=O)[C@H]1OC(C)=O [1-O-Dimethyl(octadecyl)silyl-2,3,4,6-tetr'a-0-acteyl-ß-D-glucopyranosid]
Wirkung auf Krebszellen (Krebszellen): zeigen ebenfalls eine Wirkung

C[Si](C)(OC(=O)[C@H](Cc1ccccc1)NC(=O)[C@H](Cc1ccccc1)NC(=O)[C@H](Cc1ccccc1)NC(=O)[C@H](Cc1ccccc1)NC(=O)[C@@H](N)Cc1ccccc1)OC(=O)[C@H](Cc1ccccc1)NC(=O)[C@H](Cc1ccccc1)NC(=O)[C@H](Cc1ccccc1)NC(=O)[C@H](Cc1ccccc1)NC(=O)[C@@H](N)Cc1ccccc1 [Dimethyl bis(pentaphenylalanyl)silylester]
Wirkung auf Basalzellkarzinome (Basalzellkarzinome): zeigen eine Wirkung

C[Si](C)(OC(=O)[C@H](Cc1ccccc1)NC(=O)[C@H](Cc1ccccc1)NC(=O)[C@H](Cc1ccccc1)NC(=O)[C@@H](N)Cc1ccccc1)OC(=O)[C@H](Cc1ccccc1)NC(=O)[C@H](Cc1ccccc1)NC(=O)[C@H](Cc1ccccc1)NC(=O)[C@@H](N)Cc1ccccc1 [Dimethyl bis(tetraphenylalanyl)slylester]
Wirkung auf Basalzellkarzinome (Basalzellkarzinome): zeigen eine Wirkung

CCCCCCCCCCC(=O)O[Si](OC(=O)CCCCCCCCCC)(C(C)C)C(C)C [Di(undecanoyloxy)diisopropysilan]
antimetastasierende Wirkung bei Osteosarkomen (Osteosarkomen): zeigen eine antimetastasierende Wirkung

C[Si](C)(OC(=O)CNC(=O)CNC(=O)CNC(=O)CNC(=O)CN)OC(=O)CNC(=O)CNC(=O)CNC(=O)CNC(=O)CN [Dimethyl bis(pentaglycyl)silylester]
Wirkung gegen Entero-Viren (Entero-Viren): zeigen eine Wirkung | Wirkung gegen Medulloblastome (Medulloblastome): zeigen eine Wirkung

C[Si](C)(OC(=O)CNC(=O)CNC(=O)CN)OC(=O)CNC(=O)CNC(=O)CN [Dimethyl bis(triglycyl)silylester]
Wirkung gegen Entero-Viren (Entero-Viren): zeigen eine Wirkung | Wirkung gegen Medulloblastome (Medulloblastome): zeigen eine Wirkung

CCCCCCCCC(=O)O[Si](OC(=O)CCCCCCCC)(C(C)C)C(C)C [Di(nonanoyloxy)diisopropylsilan]
antimetastasierende Wirkung bei Osteosarkomen (Osteosarkomen): zeigen eine antimetastasierende Wirkung
